In ChEMBL document CHEMBL1201862, “PubChem BioAssay data set” (2004):
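Compound exposure: 48 hours, 5 concentrations, 96-well plates. GI50: concentration for 50% inhibition of growth.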 The source made the active and inactive calls. No stated cut-off is given here; in the data, active = GI50 up to about 1.1 µM and inactive = higher.

Key:
Experiment in all cases: growth of human tumour cells (NCI), 48 h
[1] = tested on: COLO 205
[2] = tested on: DU-145
[3] = tested on: SNB-19
[4] = tested on: CCRF-CEM
[5] = tested on: K562
[6] = tested on: T47D
[7] = tested on: MDA-MB-435
[8] = tested on: OVCAR-8
[9] = tested on: NCI-H226
[10] = tested on: RPMI-8226
[11] = tested on: SF-268
[12] = tested on: 786-0
[13] = tested on: KM12
[14] = tested on: HL-60
[15] = tested on: NCI-H23
[16] = tested on: BT-549
[17] = tested on: SK-MEL-5
[18] = tested on: IGROV-1
[19] = tested on: MDA-N

Row | Structure (SMILES) | GI50 [1] | GI50 [2] | GI50 [3] | GI50 [4] | GI50 [5] | GI50 [6] | GI50 [7] | GI50 [8] | GI50 [9] | GI50 [10] | GI50 [11] | GI50 [12] | GI50 [13] | GI50 [14] | GI50 [15] | GI50 [16] | GI50 [17] | GI50 [18] | GI50 [19]
1 | CC(OC(C)(C)C)[C@H](NC(=O)OC(C)(C)C)C(=O)O (stereo partly drawn) | > 100 µM (inactive) | > 100 µM (inactive) | > 100 µM (inactive) | > 100 µM (inactive) | > 100 µM (inactive) | > 100 µM (inactive) | > 100 µM (inactive) | > 100 µM (inactive) | > 100 µM (inactive) | > 100 µM (inactive) | > 100 µM (inactive) | > 100 µM (inactive) | > 100 µM (inactive) | > 100 µM (inactive) | > 100 µM (inactive) | > 100 µM (inactive) | > 100 µM (inactive) | > 100 µM (inactive) | 
2 | O=C(/C=C/c1ccc(Cl)cc1)Oc1ccc(/C=C2\CCCCC2=O)cc1 | > 100 µM (inactive) | > 100 µM (inactive) | > 10 µM (inactive) | 55.5 µM (inactive) |  | > 100 µM (inactive) | > 100 µM (inactive) | > 100 µM (inactive) |  | > 100 µM (inactive) | 69.7 µM (inactive) | > 100 µM (inactive) | > 100 µM (inactive) | 50.7 µM (inactive) | > 100 µM (inactive) |  | > 100 µM (inactive) | > 100 µM (inactive) | > 100 µM (inactive)
3 | CS(=O)(=O)OCCN(CCOS(C)(=O)=O)c1ccc(/C=N/c2ccc(-c3csc(Cc4ccccc4)n3)cc2)c(Cl)c1 | 15.1 µM (inactive) | 30.4 µM (inactive) | > 45.3 µM (inactive) | 10.1 µM (inactive) | 12.5 µM (inactive) | 30.8 µM (inactive) | 21 µM (inactive) | 27.4 µM (inactive) | 0.218 µM (active) | 23.8 µM (inactive) | 27.4 µM (inactive) | 23 µM (inactive) | 28.6 µM (inactive) | 11.1 µM (inactive) | 23.5 µM (inactive) |  | 16.4 µM (inactive) | 18.2 µM (inactive) | 21.6 µM (inactive)
4 | O=C(/C=C/c1ccc(Cl)cc1)c1ccccc(=O)c1O | 1.23 µM (inactive) | 2.61 µM (inactive) | 2.72 µM (inactive) | 0.255 µM (active) | 1.17 µM (inactive) | 4.36 µM (inactive) | 0.977 µM (active) | 0.698 µM (active) | 1.41 µM (inactive) | 1.07 µM (active) | 3.12 µM (inactive) | 1.18 µM (inactive) | 1.53 µM (inactive) | 0.516 µM (active) | 2.71 µM (inactive) | 2.3 µM (inactive) | 0.621 µM (active) | 1.82 µM (inactive) | 
5 | CCCCCN1CCN(c2ncccn2)CC1 | > 100 µM (inactive) | > 100 µM (inactive) | > 100 µM (inactive) | > 100 µM (inactive) | > 100 µM (inactive) | > 100 µM (inactive) | > 100 µM (inactive) | > 100 µM (inactive) |  | > 100 µM (inactive) | > 100 µM (inactive) | > 100 µM (inactive) | > 100 µM (inactive) | > 100 µM (inactive) | > 100 µM (inactive) |  | > 100 µM (inactive) | > 100 µM (inactive) | > 100 µM (inactive)
6 | CN(C)CN1C(=O)S/C(=C2\C(=O)N(CN(C)C)c3ccccc32)C1=O | 36.4 µM (inactive) | 32.1 µM (inactive) | 67.5 µM (inactive) |  |  | 39.4 µM (inactive) | 66.1 µM (inactive) | 46.6 µM (inactive) | 38.9 µM (inactive) | 18 µM (inactive) | 32.8 µM (inactive) | 35.7 µM (inactive) | 41.5 µM (inactive) | 18.2 µM (inactive) | 21.7 µM (inactive) | 45.1 µM (inactive) | 38.6 µM (inactive) | 57.5 µM (inactive) | 
7 | BrCC(Br)(c1ccccc1)c1ccccc1-c1cc(-c2ccccc2)cc(-c2ccccc2)n1 (stereo not drawn) | 1.43 µM (inactive) | 4.12 µM (inactive) | 4.86 µM (inactive) | 3.66 µM (inactive) | 0.893 µM (active) |  | 1.84 µM (inactive) | 3.06 µM (inactive) | 3.72 µM (inactive) | 0.908 µM (active) | 2.36 µM (inactive) | 3.64 µM (inactive) | 3.13 µM (inactive) | 1.07 µM (active) | 3.94 µM (inactive) | 2.51 µM (inactive) | 1.55 µM (inactive) | 3.2 µM (inactive) | 3.01 µM (inactive)
8 | Cn1c(=O)n(C2(C)CSC2)c2ccccc21 | > 100 µM (inactive) |  | > 100 µM (inactive) | > 100 µM (inactive) | > 100 µM (inactive) |  |  | > 100 µM (inactive) | > 100 µM (inactive) | > 100 µM (inactive) | > 100 µM (inactive) | > 100 µM (inactive) | > 100 µM (inactive) | > 100 µM (inactive) | > 100 µM (inactive) |  | > 100 µM (inactive) | > 100 µM (inactive) | 
9 | Cc1ccc(S(=O)(=O)N/N=C/CN2C(=O)c3ccccc3C2=O)cc1 | > 100 µM (inactive) |  | > 100 µM (inactive) | > 100 µM (inactive) | > 100 µM (inactive) |  |  | > 100 µM (inactive) | 82.2 µM (inactive) | > 100 µM (inactive) |  | > 100 µM (inactive) |  | > 100 µM (inactive) | > 100 µM (inactive) |  | > 100 µM (inactive) | > 100 µM (inactive) | 
10 | O=C1Nc2c(Cl)cc(Cl)cc2C1=O | 23.5 µM (inactive) |  | > 100 µM (inactive) | 21.3 µM (inactive) | 29.2 µM (inactive) |  | 4.27 µM (inactive) | 16.9 µM (inactive) | 18.5 µM (inactive) |  |  | 17.3 µM (inactive) | 30.5 µM (inactive) | 2.4 µM (inactive) | 23.5 µM (inactive) | 18 µM (inactive) | 15.3 µM (inactive) | 17.7 µM (inactive) | 8.99 µM (inactive)
11 | Cc1ccc2nc(CN3CCCC(O)C3)cc(=O)n2c1 (stereo not drawn) | > 100 µM (inactive) | > 100 µM (inactive) | > 100 µM (inactive) | > 100 µM (inactive) | > 100 µM (inactive) |  | > 100 µM (inactive) | > 100 µM (inactive) | > 100 µM (inactive) | > 100 µM (inactive) | > 100 µM (inactive) | > 100 µM (inactive) | > 100 µM (inactive) | > 100 µM (inactive) | > 100 µM (inactive) | > 100 µM (inactive) |  | > 100 µM (inactive) | > 100 µM (inactive)
12 | CC(c1ccc2c(c1)CCC1C2CC2OC23CC=CC(=O)[C@]13C)C1C[C@]2(C)O[C@]2(C)[C@H](O)O1 (stereo partly drawn) | 71.9 µM (inactive) |  | 15.9 µM (inactive) | 15.4 µM (inactive) | 3.14 µM (inactive) |  |  | 37 µM (inactive) | 12.1 µM (inactive) | 2 µM (inactive) | 63.4 µM (inactive) | > 100 µM (inactive) | 36.6 µM (inactive) | 1.96 µM (inactive) | 0.219 µM (active) |  | 11 µM (inactive) | 90.6 µM (inactive) | 
13 | N=C(N)SCc1ccc2c(c1)S(=O)(=O)c1ccccc1O2 | 29 µM (inactive) | 32.4 µM (inactive) | 61.1 µM (inactive) | 10.5 µM (inactive) | 26.7 µM (inactive) | 22.5 µM (inactive) | 15.5 µM (inactive) | 30.1 µM (inactive) | 16.7 µM (inactive) | 37.7 µM (inactive) | 33.7 µM (inactive) | 33.6 µM (inactive) | 16.9 µM (inactive) | 14.9 µM (inactive) | 19.1 µM (inactive) |  |  | 16.4 µM (inactive) | 17.7 µM (inactive)
14 | CCN(CC)CCCNc1ccc([N+](=O)[O-])c2nc3ccc(OC)cc3c(N)c12 | 1.34 µM (inactive) | 3.21 µM (inactive) | > 4.34 µM (inactive) | 1.34 µM (inactive) | 2.1 µM (inactive) | > 10 µM (inactive) | 1.62 µM (inactive) | 1.95 µM (inactive) | > 10 µM (inactive) | 2 µM (inactive) | 1.71 µM (inactive) | 1.44 µM (inactive) | 1.57 µM (inactive) | 1.94 µM (inactive) | 2.29 µM (inactive) | 1.53 µM (inactive) | > 5.16 µM (inactive) | 2.58 µM (inactive) | 
15 | CC(=O)NS(=O)(=O)c1ccc(NC(=O)c2c3ccccc3nc3ccccc23)cc1 | > 100 µM (inactive) | > 100 µM (inactive) | > 100 µM (inactive) | > 100 µM (inactive) | > 100 µM (inactive) |  | > 100 µM (inactive) | > 100 µM (inactive) |  | > 100 µM (inactive) | > 100 µM (inactive) | > 100 µM (inactive) | > 100 µM (inactive) | 1.48 µM (inactive) | > 100 µM (inactive) | > 100 µM (inactive) | > 100 µM (inactive) | > 100 µM (inactive) | > 100 µM (inactive)
16 | O=C1CCC[C@@H]2NC[C@@H](c3ccc4c(c3)OCO4)[C@H]12 | > 25 µM (inactive) | > 25 µM (inactive) | > 25 µM (inactive) | > 25 µM (inactive) | > 25 µM (inactive) | > 25 µM (inactive) | > 25 µM (inactive) | > 25 µM (inactive) | > 25 µM (inactive) | > 25 µM (inactive) | > 25 µM (inactive) | > 25 µM (inactive) | > 25 µM (inactive) | > 25 µM (inactive) | > 25 µM (inactive) |  | > 25 µM (inactive) | > 25 µM (inactive) | > 25 µM (inactive)
